This passage reports T/C results from PubChem BioAssay AID328 (DTP/NCI, 2004).

Where “and” joins values, the source holds several entries; their conditions need not be identical. Identical values can stand only once. Inconclusive results and toxic doses are left out.

The test system of the assay is BDF1 mice, P388 leukemia ip, median survival T/C. In words: NCI In Vivo Anticancer Drug Screen. Data for tumor model P388 Leukemia (intraperitoneal) in B6D2F1 (BDF1) mice. The following applies: endpoint: median survival time, higher = longer survival. Put shortly: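 Reported as T/C, where T is the survival measurement in dosed animals and C the same measurement in vehicle controls.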

Where [1] appears, read: dose: 25.0 mg/kg/injection, schedule: Q01DX009 (ip), vehicle: saline with Tween-80.
[2] abbreviates: dose: 50.0 mg/kg/injection, schedule: Q01DX009 (ip), vehicle: Klucel (hydroxypropylcellulose) (HPC).
The mark [3] stands for this setting: dose: 50.0 mg/kg/injection, schedule: Q01DX009 (ip), vehicle: saline with Tween-80.
The mark [4] stands for this setting: dose: 100.0 mg/kg/injection, schedule: Q01DX009 (ip), vehicle: Klucel (hydroxypropylcellulose) (HPC).
Where [5] appears, read: dose: 100.0 mg/kg/injection, schedule: Q01DX009 (ip), vehicle: saline with Tween-80.

`COC1C(O)C(C)OC(OC2C(Oc3cccc4c(O)c5c(=O)oc6ccc(C)c7c(=O)oc(c34)c5c67)OC(C)C(O)C2O)C1O` (stereo not given): the T/C is, setting by setting: (dose: 0.39 mg/kg/injection, schedule: Q01DX009 (ip), vehicle: other) 98 % of control and 121 % of control; (dose: 0.39 mg/kg/injection, schedule: Q01DX009 (oral), vehicle: Klucel (hydroxypropylcellulose) (HPC)) 110 % of control; (dose: 0.78 mg/kg/injection, schedule: Q01DX009 (ip), vehicle: other) 104 % of control; (dose: 0.78 mg/kg/injection, schedule: Q01DX009 (oral), vehicle: Klucel (hydroxypropylcellulose) (HPC)) 100 % of control; (dose: 1.56 mg/kg/injection, schedule: Q01DX009 (ip), vehicle: other) 106 % of control; (dose: 1.56 mg/kg/injection, schedule: Q01DX009 (oral), vehicle: Klucel (hydroxypropylcellulose) (HPC)) 98 % of control and 104 % of control. The T/C reads like this: (dose: 3.12 mg/kg/injection, schedule: Q01DX009 (ip), vehicle: Klucel (hydroxypropylcellulose) (HPC)) 159 % of control; (dose: 3.12 mg/kg/injection, schedule: Q01DX009 (ip), vehicle: other) 159 % of control; (dose: 3.12 mg/kg/injection, schedule: Q01DX009 (oral), vehicle: Klucel (hydroxypropylcellulose) (HPC)) 109 % of control and 110 % of control; (dose: 3.13 mg/kg/injection, schedule: Q01DX009 (ip), vehicle: saline with Tween-80) 162 % of control; (dose: 6.25 mg/kg/injection, schedule: Q01DX009 (ip), vehicle: Klucel (hydroxypropylcellulose) (HPC)) 173 % of control; (dose: 6.25 mg/kg/injection, schedule: Q01DX009 (ip), vehicle: other) 200 % of control. The T/C was 217 % of control (dose: 6.25 mg/kg/injection, schedule: Q01DX009 (ip), vehicle: saline with Tween-80); 101 % of control and 106 % of control (dose: 6.25 mg/kg/injection, schedule: Q01DX009 (oral), vehicle: Klucel (hydroxypropylcellulose) (HPC)); 150 % of control (dose: 8.0 mg/kg/injection, schedule: Q04DX003 (ip), vehicle: saline with Tween-80); 209 % of control (dose: 12.5 mg/kg/injection, schedule: Q01DX009 (ip), vehicle: Klucel (hydroxypropylcellulose) (HPC)); 156 % of control and 165 % of control and 205 % of control (dose: 12.5 mg/kg/injection, schedule: Q01DX009 (ip), vehicle: other); 190 % of control and 199 % of control (dose: 12.5 mg/kg/injection, schedule: Q01DX009 (ip), vehicle: saline with Tween-80). The T/C runs as follows: (dose: 12.5 mg/kg/injection, schedule: Q01DX009 (oral), vehicle: Klucel (hydroxypropylcellulose) (HPC)) 103 % of control and 105 % of control; (dose: 16.0 mg/kg/injection, schedule: Q04DX003 (ip), vehicle: saline with Tween-80) 173 % of control; (dose: 25.0 mg/kg/injection, schedule: Q01DX009 (ip), vehicle: Klucel (hydroxypropylcellulose) (HPC)) 221 % of control; (dose: 25.0 mg/kg/injection, schedule: Q01DX009 (ip), vehicle: other) 167 % of control and 215 % of control; under setting [1], 236 % of control and 210 % of control; (dose: 25.0 mg/kg/injection, schedule: Q01DX009 (oral), vehicle: Klucel (hydroxypropylcellulose) (HPC)) 100 % of control and 105 % of control. The T/C is 172 % of control (dose: 32.0 mg/kg/injection, schedule: Q04DX003 (ip), vehicle: saline with Tween-80); 170 % of control (dose: 43.2 mg/kg/injection, schedule: Q04DX003 (ip), vehicle: Klucel (hydroxypropylcellulose) (HPC)); 153 % of control (dose: 43.2 mg/kg/injection, schedule: Q04DX003 (ip), vehicle: acid diluted with saline); 221 % of control under setting [2]; 231 % of control and 193 % of control (dose: 50.0 mg/kg/injection, schedule: Q01DX009 (ip), vehicle: other); 190 % of control under setting [3]. Also, the T/C reads like this: (dose: 50.0 mg/kg/injection, schedule: Q01DX009 (oral), vehicle: Klucel (hydroxypropylcellulose) (HPC)) 103 % of control and 111 % of control; (dose: 64.0 mg/kg/injection, schedule: Q04DX003 (ip), vehicle: saline with Tween-80) 175 % of control; (dose: 72.0 mg/kg/injection, schedule: Q04DX003 (ip), vehicle: Klucel (hydroxypropylcellulose) (HPC)) 173 % of control; (dose: 72.0 mg/kg/injection, schedule: Q04DX003 (ip), vehicle: acid diluted with saline) 173 % of control; under setting [4], 170 % of control; under setting [5], 190 % of control and 220 % of control. Besides, the T/C is, setting by setting: (dose: 100.0 mg/kg/injection, schedule: Q01DX009 (oral), vehicle: Klucel (hydroxypropylcellulose) (HPC)) 104 % of control; (dose: 120.0 mg/kg/injection, schedule: Q04DX003 (ip), vehicle: Klucel (hydroxypropylcellulose) (HPC)) 184 % of control; (dose: 120.0 mg/kg/injection, schedule: Q04DX003 (ip), vehicle: acid diluted with saline) 180 % of control; (dose: 128.0 mg/kg/injection, schedule: Q04DX003 (ip), vehicle: saline with Tween-80) 182 % of control; (dose: 200.0 mg/kg/injection, schedule: Q01DX009 (oral), vehicle: Klucel (hydroxypropylcellulose) (HPC)) 105 % of control; (dose: 200.0 mg/kg/injection, schedule: Q04DX003 (ip), vehicle: Klucel (hydroxypropylcellulose) (HPC)) 175 % of control. The T/C (dose: 200.0 mg/kg/injection, schedule: Q04DX003 (ip), vehicle: acid diluted with saline) was 173 % of control.

Take `CCSc1ccc2c(c1)N(CCCN1CCN(C)CC1)c1ccccc1S2`: the T/C was 110 % of control (dose: 15.0 mg/kg/injection, schedule: Q04DX003 (ip), vehicle: saline); 112 % of control under setting [1]; 92 % of control (dose: 25.0 mg/kg/injection, schedule: Q01DX009 (ip), vehicle: saline); 120 % of control (dose: 30.0 mg/kg/injection, schedule: Q04DX003 (ip), vehicle: saline); 91 % of control under setting [3]; 103 % of control (dose: 50.0 mg/kg/injection, schedule: Q01DX009 (ip), vehicle: saline). The T/C is, setting by setting: (dose: 100.0 mg/kg/injection, schedule: Q04DX003 (ip), vehicle: saline) 90 % of control; (dose: 120.0 mg/kg/injection, schedule: Q04DX003 (ip), vehicle: saline) 105 % of control; (dose: 200.0 mg/kg/injection, schedule: Q04DX003 (ip), vehicle: saline) 150 % of control.

Consider `OCCOCCN1CCN(CCCN2c3ccccc3Sc3ccc(C(F)(F)F)cc32)CC1`, for which the T/C is, setting by setting: (dose: 1.56 mg/kg/injection, schedule: Q01DX009 (ip), vehicle: saline) 109 % of control; (dose: 12.5 mg/kg/injection, schedule: Q04DX003 (ip), vehicle: saline) 113 % of control and 120 % of control; (dose: 50.0 mg/kg/injection, schedule: Q04DX003 (ip), vehicle: saline) 117 % of control.

Take `CS(=O)(=O)OCCN(Cc1ccc(OS(C)(=O)=O)cc1)S(C)(=O)=O`: the T/C under setting [3] was 102 % of control; the T/C under setting [5] was 103 % of control; the T/C (dose: 100.0 mg/kg/injection, schedule: Q04DX003 (ip), vehicle: saline with Tween-80) is 107 % of control; the T/C (dose: 200.0 mg/kg/injection, schedule: Q01DX009 (ip), vehicle: saline with Tween-80) was 110 % of control; the T/C (dose: 200.0 mg/kg/injection, schedule: Q04DX003 (ip), vehicle: saline with Tween-80) is 109 % of control; the T/C (dose: 400.0 mg/kg/injection, schedule: Q01DX009 (ip), vehicle: saline with Tween-80) was 94 % of control. Where the note is “dose: 400.0 mg/kg/injection, schedule: Q04DX003 (ip), vehicle: saline with Tween-80”, the T/C was 111 % of control.

In the case of `COC1C(OC(N)=O)C(O)C(Oc2ccc3c(O)c(NC(=O)c4ccc(O)c(CC=C(C)C)c4)c(=O)oc3c2C)OC1(C)C` (stereo not given), the T/C is 121 % of control under setting [2]; 111 % of control under setting [4]; 121 % of control (dose: 200.0 mg/kg/injection, schedule: Q01DX009 (ip), vehicle: Klucel (hydroxypropylcellulose) (HPC)).
